One test relates to H9C2 cells. The experiment in a line: Lactate production by H9C2 cells. Format: cell-based, rat. The note with it: for Lactate concentration / production in H9C2 cells (in words): relative to control. The procedure: H9C2 (2-1) embryonic rat heart cells (passage 12, obtained from American Type Culture Collection, Manassas, Va.) were cultured in Dulbecco's modified Eagle's medium (DMEM—Gibco-Invitrogen) containing 10% fetal bovine serum (FBS) and 100 U/ml penicillin-streptomycin at 37° C. in a humidified atmosphere containing 5% CO2. The cells were subcultured into 60 mm culture dishes when 80% confluent (before fusion into myotubes occurred) and were differentiated toward a cardiac phenotype by exposure to DMEM containing 1% horse serum and 0.1 μM all-trans retinoic acid (Sigma) for four days (Menard et al 1999. J Biol Chem 274:29063-70; Bronstrom et al 2000. Int J. Biochem Cell Biol 32:993-1006). Retinoic acid was prepared in the dark in DMSO and stored at −20° C. The concentration of DMSO in the culture media was less than 0.2%. Media was changed daily.
To screen for metabolic actions of dHPGs, H9C2 cells were exposed to a range of dHPG concentration (0.001 to 100 μM). Studies were conducted over six hours in serum-free Krebs-Henseleit (KH) solution (118 mM NaCl, 4.7 mM KCl, 1.2 mM KH2PO4, 1.2 mM MgSO4, 2.0 mM CaCl2, 25 mM NaHCO3, 0.4 mM Na2CO3) containing 0.4 mM palmitate (bound to fatty-acid free albumin), 5.5 mM glucose and 20 mU/L insulin. Aliquots of media (60 μl) were taken at 3 and 6 hours. Viability of cells was assessed by visual inspection of cell morphology using a microscope and by assessment of mitochondrial integrity (MTS—Promega). Accumulation of lactate in the bathing solution over 6 hrs was measured using a diagnostic kit (Sigma, St. Louis, Mo.). Lactate accumulation was expressed as μmol/mg protein. Protein content of the cultures was determined using a commercial Bicinchoninic Acid (BCA) protein assay kit from Sigma (St. Louis, Mo.). Pharmacological agents used as controls included Dicholoracetate (DCA), which directly stimulates glucose oxidation by activating pyruvate dehydrogenase and causes a reduction in lactate.
A variety of dHPG polymers were administered to H9C2 cells in culture and the lactate production analyzed (Tables 2, 3; FIGS. 1a, b). […] Concentration range data (0.0001 to 250.0 uM), as well as controls (dichloroacetate-7.5 mM, DCA-BDH), a group exposed to oxfenicine (2 mM, OXF-Fluka), and a group exposed to oligomycin (2.0 μM, Oligo-Sigma).

The subject of test [1] is isolated working rat hearts. The experiment in a line: Isolated working rat hearts, normoxic non-ischemic perfusion. As to the method: Hearts from halothane (3-4%)-anesthetized male Sprague-Dawley rats were isolated and perfused as working preparations with Krebs-Henseleit (KH) solution at a left atrial preload of 11.5 mmHg and an aortic afterload of 80 mmHg in a closed recirculating system with oxygenated (95% O2-5% CO2) Krebs-Henseleit (KH) solution maintained at 37° C., as described (Burelle et al 2004. Am J Physiol Heart Circ Physiol 287:H1055-63; Allard et al 1994. Am J Physiol 267:H742-H750; Saeedi et al 2006. BMC Cardiovasc Disord 6:8). A first series of hearts was perfused with KH solution containing 0.6 or 1.2 mM [1-^14C]- or [9,10-^3H]-palmitate, prebound to fatty acid-free albumin (3%), together with 5.5 mM glucose, 0.5 mM lactate, and 20 mU/l insulin in order to measure rates of palmitate oxidation. A second series of hearts was perfused with KH solution containing 0.6 or 1.2 mM palmitate, 5.5 mM [5-^3H/U-^14C]-glucose, 0.5 mM lactate, and 20 mU/l insulin in order to measure glycolysis and glucose oxidation. Concentrations of insulin and substrates reflect values seen under physiologic and pathophysiologic conditions. […]
Heart rate and systolic pressure may be measured using a pressure transducer (Viggo-Spectramed, Oxnard, Calif.) inserted in the afterload line of the isolated heart. Cardiac output and aortic flow may be measured via external flow probes (Transonic Systems, Ithaca, N.Y.) on the left atrial preload and aortic afterload lines, respectively. External work performed by the heart is expressed as, “rate-pressure product”, the product of heart rate and peak systolic pressure, and “hydraulic work”, the product of cardiac output and peak systolic pressure. […]
Isolated, working rat hearts were exposed to 10 μM dHPG-85K-G71.4-C181.9-PEG26.7(RKK-108) and studied under normoxic, non-ischemic conditions. During normoxic, non-ischemic perfusion, RKK108 improves heart function (rate-pressure assessment—beats per minute×mmHg/1000) by about 10 to about 15% (FIG. 2), When heart function is assessed by hydraulic work an improvement of about 20% is also observed.

For the compound `CC[C@H]1/C=C/C=C/C[C@@H](C)[C@H](O)[C@@](C)(O)C(=O)[C@@H](C)[C@H](O)[C@@H](C)C(=O)[C@@H](C)[C@H](O)[C@@H](C)/C=C/C(=O)O[C@@H]2[C@H](C)[C@H](CC1)O[C@]1(CC[C@H](C)[C@H](C[C@@H](C)O)O1)[C@H]2C` [Oligomycin], the “Lactate Production by H9C2 Cells” value with H9C2 cells (2 μM) is recorded as 226 ± 10 % Control. In addition, the “Lactate concentration / production in H9C2 cells (in words)” value in the test with H9C2 cells was “increase in lactate concentration, greater than that of OXF-treated samples”.
For the compound `N[C@H](C(=O)O)c1ccc(O)cc1` [Oxfenicine], the Glycolysis result in test [1] was “accelerates both glucose oxidation and glycolysis”. In test [1] (RKK108 10 μM), the Glucose oxidation result is “accelerates both glucose oxidation and glycolysis”; the Palmitate oxidation entry is listed as “reduces palmitate oxidation”. Moreover, the “Lactate Production by H9C2 Cells” value in the test on H9C2 cells (2 mM) was determined as 130 ± 7 % Control. Also, the “Lactate concentration / production in H9C2 cells (in words)” value in the test with H9C2 cells was “increase in lactate”.
On to `O=C(O)C(Cl)Cl` [DCA, dichloroacetate], for which the “Lactate Production by H9C2 Cells” value with H9C2 cells (7.5 mM) is listed as 63 ± 5 % Control.

The values above are taken from patent US20100324150A1, “HYPERBRANCHED POLYGLYCEROL FOR IMPROVING HEART FUNCTION” (THE UNIVERSITY OF BRITISH COLUMBIA, priority 2007, published 2010).
